Results from patent publication US11001587B2, “Substituted indazoles as phosphatidylinositol kinase inhibitors” (CUROVIR AB, priority 2017, dated 2021).
Where two headings read alike, the source gives them in different places.

What was measured:
in vivo = assay: in vivo; design: species or system Sprague Dawley rats; details: Sprague Dawley, rat, po
Method: Based on previous toxicity tests with analogs and pharmacokinetic data, repeated dose toxicity and toxicokinetic studies were conducted to generate information on the toxic characteristics of some representative compounds of the invention, viz. Example 8 and Example 12, respectively, when administered orally by gavage to Sprague Dawley rats for a period of 7 consecutive days. The study plan for the studies was by current ICH guidelines for 7 days toxicity studies and the No Observed Adverse Effect Level (NOAEL) of Example 8 and Example 12 was determined as 60 mg/kg body weight/day and 50 mg/kg bodyweight/day respectively when administered once daily orally to Sprague Dawley rats for 7 consecutive days under the tested dose levels and experimental conditions employed.

[1] = tested on: Coxsackie B3 (Nancy strain) virus; assay: CVB3-induced pancreatitis mouse model; type: in vivo; details: Coxsackie B3 Nancy strain infected SJL mice, 4 different dosages, treated 2 h pre-infection then once daily for 3 days
Method: Compounds of the present invention were studied in a CVB3 induced pancreatitis mouse model as described by van der Schaar et al (Antimicrob. Agents Chemother. 2013, 57(10):4971-4981). Animals (SJL mice) were infected intraperitoneally with 0.3 ml Coxsackie B3 (Nancy strain) virus (log TCID50=8). The animals were treated 2 h pre-infection and then once daily for 3 days. The animals were euthanized and organs were collected for pancreatitis evaluation by histopathology and for virus titer determination by immunohistochemistry and polymerase chain reaction (PCR). Pancreata were obtained from infected and uninfected control animals and from animals treated with 4 different dosages of Example 8, and HE-stained slides of the organs were prepared, studied and scored for signs of inflammation and necrosis on a scale from 0 to 3, as follows: 0=no abnormalities. […] The virus titer in the organs was determined by immunohistochemistry using the Dako 5-D8/1 monoclonal mouse antibody and the titer was scored on a scale from 0 to 4, where 0 indicates no infection and 4 corresponds to the highest determined virus titer (FIG. 4). The Ct values from PCR detection of virus titers were determined (FIG. 5). […] Corresponding studies were also performed on Examples 2, 8 and 20 at a dosage of 50 mg/kg/day and pancreatitis scoring and Ct values were determined (FIG. 6).

EV71 = assay: Time of addition assay; type: cell-based, Enterovirus 71; details: Enterovirus A, 100 nM, EV71 at high titer
Method: The titer of the virus was determined by the standard method of tissue culture infective dose (TCID50) on cells. Briefly, cells were infected with 50 μl of virus suspension, and diluted 10-fold in media. The plates were incubated in 37° C. with 5% CO2 for 3-7 days and cells were inspected daily for CPE. After determining CPE, plates were stained with Gram's Crystal Violet solution and optical density was read at 540 nm. […] Substances at a final concentration of 0.1 nM-1 μM and the virus were added to the cells and incubated for 3-7 days depending on the virus and cell line used. As controls, uninfected cells and cells infected with virus (no substance) were included on each plate. The cells were stained with crystal violet after determining the CPE on infected controls and the optical density was read at 540 nm. The inhibition capacity was calculated as a % by comparison with non-infected and infected controls. Time of addition assay The assay was performed like the “in vitro assay in mammalian cell culture” described above with the exception that substance was added one hour pre inoculation (−1 h), at inoculation (0 h), and 2 hours (+2 h), 6 hours (+6 h) or 24 hours (+24 h) past inoculation. The virus EV71 was used at high titer for the test.

Compound	NOAEL at 7 days (in vivo) [mg/kg/day]	Dose-response of pancreatitis scoring and virus titer [1]	inhibition at 0.1 µM (EV71; 0 h, substance added at inoculation, read-out: Inhibition of cytopathogenic effect, 0 h) [%]	inhibition at 0.1 µM (EV71; 1 h, substance added one hour pre inoculation, read-out: Inhibition of cytopathogenic effect, −1 h) [%]	inhibition at 0.1 µM (EV71; substance added 2 hours past inoculation, read-out: Inhibition of cytopathogenic effect, +2 h) [%]	inhibition at 0.1 µM (EV71; substance added 6 hours past inoculation, read-out: Inhibition of cytopathogenic effect, +6 h) [%]	inhibition at 0.1 µM (EV71; substance added 24 hours past inoculation, read-out: Inhibition of cytopathogenic effect, +24 h) [%]
Cc1cc(NCc2ccncc2)n2nc(C)c(-c3ccc4c(c3)c(C)nn4C)c2n1 [Example 8, 3-(1,3-dimethyl-1H-indazol-5-yl)-2,5-dimethyl-N-(pyridin-4-ylmethyl)pyrazolo[1,5-a]pyrimidin-7-amine]	60	very good dose-response					
Cc1nc(NCc2ccncc2)n2nc(C)c(-c3ccc4c(c3)c(C)nn4C)c2n1 [Example 20, 8-(1,3-dimethyl-1H-indazol-5-yl)-2,7-dimethyl-N-(pyridin-4-ylmethyl)pyrazolo[1,5-a][1,3,5]triazin-4-amine]			94	85	95	99	2
